Experimental data: US9932410B2, “Human neutralizing anti-kit antibodies and uses thereof” (INSERM (Institut National de la Sante et de la Recherche …, priority 2013, dated 2018)
Entries after “also recorded” stand apart in the source; their conditions may differ.

Tests used:
HMC1.1 (KITV560G) cells = assay: Proliferation assay (MTS cell viability) on HMC1.1 cells; type: cell-based, human
Procedure: FIG. 5: Antibody modulation of oncogenic KIT. (A) HMC1.1 or HMC1.2 cells were incubated in IMDM 1% serum in the presence of anti-KIT antibodies or control antibody as indicated at 5 μg/mL (light grey) or 50 μg/mL (medium grey) or without antibody (dark grey). Cell viability is expressed in % compared to non treated cells. HMC1.1 or HMC1.2 cells were incubated in IMDM 10% serum in the presence of anti-KIT antibodies or control antibody (10 μg/mL) for 1, 2 or 24 hrs. As indicated and analyzed (B) by FACS using 104D2 anti-KIT antibody or (C) by western blot using anti-KIT and phospho-specific anti-KIT antibodies. (D) Three days treatment with anti-KIT antibodies maintained a low level of KIT on both mastocytoma cell lines.
UT-7 were seeded at 10^4 cells/well and treated for 4 days with 2D1, 3G1, H7 or Bot irrelevant antibody at 5 or 50 μg/mL […] in the presence of EPO or CHO-KL supernatant diluted 500 times. HMC1.1 and 1.2 were treated the same but for 7 days and with 1% SVF instead of 10% and without cytokines. Cell viability was estimated with MTS assay (PROMEGA) as recommended by the manufacturer.

[1] = test system: HMC1.2 (KIT V560G D816V) cells; assay: Proliferation assay (MTS cell viability) on HMC1.2 cells
[2] = molecular target: T1, KIT surface level on UT-7/EPO cells (wild type KIT) (Homo sapiens, UniProt P10721); assay: Internalization assay: KIT surface level by FACS with 104D2 on UT-7/EPO cells; type: cell-based
T1 construct: endogenous in cells; host or cells: UT-7/EPO human erythroleukemic cells

biotinylated KIT-ECD = molecular target: T2, biotinylated KIT-ECD (Homo sapiens, UniProt P10721); assay: Affinity measurement using yeast display of scFv with biotinylated KIT-ECD; type: binding; conditions: scFv displayed on yeast; for Kd: affinity matured variants, read-out: intrinsic Kd
T2 construct: KIT-ECD, amino acid 26 to 509, P10721 UniProtKB/Swiss-Prot; 6His (C); biotin (label); made in house; host or cells: insect cells (High Five, baculovirus)
Description: Cells were then put on ice, washed with ice cold FACS buffer and bound antigen was detected with Streptavin conjugated to PE.

T2 sequence (P10721 26-509): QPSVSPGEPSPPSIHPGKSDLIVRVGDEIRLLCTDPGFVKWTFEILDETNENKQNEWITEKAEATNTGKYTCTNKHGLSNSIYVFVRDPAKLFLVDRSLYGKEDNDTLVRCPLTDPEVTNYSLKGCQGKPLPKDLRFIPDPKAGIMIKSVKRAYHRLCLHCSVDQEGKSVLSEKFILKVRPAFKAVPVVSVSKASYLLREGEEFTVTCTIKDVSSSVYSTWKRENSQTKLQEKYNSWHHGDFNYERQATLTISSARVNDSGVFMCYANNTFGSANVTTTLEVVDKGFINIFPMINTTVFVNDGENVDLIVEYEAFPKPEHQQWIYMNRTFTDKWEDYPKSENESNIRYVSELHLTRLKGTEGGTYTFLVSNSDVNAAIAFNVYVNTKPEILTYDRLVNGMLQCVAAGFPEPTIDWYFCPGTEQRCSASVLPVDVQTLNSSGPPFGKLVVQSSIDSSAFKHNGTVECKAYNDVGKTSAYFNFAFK
T1 sequence (P10721 26-976): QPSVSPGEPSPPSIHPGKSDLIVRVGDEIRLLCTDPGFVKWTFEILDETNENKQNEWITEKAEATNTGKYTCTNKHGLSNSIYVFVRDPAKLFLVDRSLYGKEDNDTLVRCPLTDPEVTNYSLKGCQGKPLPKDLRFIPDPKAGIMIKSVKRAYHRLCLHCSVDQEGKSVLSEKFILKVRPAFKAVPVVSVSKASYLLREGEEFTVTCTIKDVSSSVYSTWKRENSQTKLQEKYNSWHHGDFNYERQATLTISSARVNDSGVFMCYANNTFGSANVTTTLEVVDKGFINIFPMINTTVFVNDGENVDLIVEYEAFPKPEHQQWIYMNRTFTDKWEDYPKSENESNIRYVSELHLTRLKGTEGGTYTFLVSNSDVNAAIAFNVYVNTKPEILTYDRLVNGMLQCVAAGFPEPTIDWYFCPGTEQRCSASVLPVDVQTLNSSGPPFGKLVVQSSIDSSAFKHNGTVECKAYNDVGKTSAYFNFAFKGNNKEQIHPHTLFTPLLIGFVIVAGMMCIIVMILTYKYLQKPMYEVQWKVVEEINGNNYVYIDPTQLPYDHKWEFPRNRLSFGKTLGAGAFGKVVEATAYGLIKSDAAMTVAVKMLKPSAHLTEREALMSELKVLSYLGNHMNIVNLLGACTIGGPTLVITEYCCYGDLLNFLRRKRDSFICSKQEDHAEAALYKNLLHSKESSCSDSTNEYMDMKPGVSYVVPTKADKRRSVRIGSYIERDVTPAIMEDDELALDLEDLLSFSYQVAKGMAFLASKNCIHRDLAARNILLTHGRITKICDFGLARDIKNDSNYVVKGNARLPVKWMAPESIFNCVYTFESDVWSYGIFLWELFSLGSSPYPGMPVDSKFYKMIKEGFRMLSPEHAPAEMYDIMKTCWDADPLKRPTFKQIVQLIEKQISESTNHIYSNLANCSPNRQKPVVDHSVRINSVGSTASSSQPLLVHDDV

Cc1nc(Nc2ncc(C(=O)Nc3c(C)cccc3Cl)s2)cc(N2CCN(CCO)CC2)n1 [dasatinib, N-(2-chloro-6-methylphenyl)-2-[[6-[4-(2-hydroxyethyl)-1-piperazinyl]-2-methyl-4-pyrimidinyl]amino]-5-thiazole-carboxamide monohydrate]
toxicity of TKI to HMC1.1 cells (HMC1.1 (KITV560G) cells): toxic to HMC1.1 cells | toxicity of TKI to HMC1.2 cells [1]: toxic to HMC1.2 cells

Cc1ccc(NC(=O)c2ccc(CN3CCN(C)CC3)cc2)cc1Nc1nccc(-c2cccnc2)n1 [imatinib, 4-[(4-methylpiperazin-1-yl)methyl]-N-(4-methyl-3-{[4-(pyridin-3-yl)pyrimidin-2-yl]amino}phenyl)benzamide]
toxicity of TKI to HMC1.1 cells (HMC1.1 (KITV560G) cells): toxic to HMC1.1 cells | toxicity of TKI to HMC1.2 cells [1]: resistance of the D816V mutant to imatinib | KIT surface levels, imatinib treatment alone ([2]; UT-7/EPO cells with EPO, Imatinib 1 μM, 4 hrs): decreased KIT surface levels; also recorded: reduced KIT level at the cell surface | effect on SCF-induced KIT surface level decrease ([2]; UT-7/EPO cells, imatinib with SCF): inhibited SCF-induced KIT surface level decrease

B1: 2D1-C7: affinity matured variant of 2D1, same VH (SEQ ID NO: 1), VL SEQ ID NO: 26 (antibody, V domains shown)
VH: MAQVKLQESGGGLVQPGGSLRLSCAASGFTFDSYAMSWVRQAPGKGLEWVSYITSSSSTIYYVDSVKGRFTISRDNAKNSLYLQMNSLRDEDTAVYYCARLRNSEGYWYFDLWGRGTLVTVSS
VL: SQSVLTQDPAVSVALGQTVRITCQGDSLRSYYASWYQQKPGQAPLLVMYGENIRPSGIPDRFSGSTSGNSASLTITGAQAEDEADYYCNSRDSSGNHLNWVFGGGTKLTVLG
modifications: Synthetic 2D1 VH chain; Synthetic 2D1-C7 VL chain
concentration of Ag at which saturation is reached (biotinylated KIT-ECD): 10 nM | Kd (biotinylated KIT-ECD): 4.2 nM

B2: 3G1-A2: affinity matured variant of 3G1, same VH (SEQ ID NO: 9), VL SEQ ID NO: 30 (antibody, V domains shown)
VH: MAQVQLVESWGGVAQPGRSLRLSCAASGFTFSSFAMHWVRQAPGKGLEWVAVTSYDGSNEYYADSVKGRFTISRDNSKNTLYLQMNSLRAEDTAVYYCAKAMVRGVTFGDLDYWGQGTLVTVSS
VL: SSELTQDPAVSVALGQTVRKTCQGDSLKSYYASWYQQKPGQAPVLVIYGENSRPSGIPDRFSGSSSGNTASLTITGAQAEDEADYYCCSRATGGYHRIFGGGTKLTVLG
modifications: Synthetic 3G1 VH chain; Synthetic 3G1-A2 VL chain
concentration of Ag at which saturation is reached (biotinylated KIT-ECD): 10 nM | Kd (biotinylated KIT-ECD): 1.7 nM
